According to patent publication US10953012B2, “Heterocyclic compounds for the inhibition of pask” (BioEnergenix LLC, priority 2011, dated 2021):

Molecular target: PASK (Homo sapiens (Human), UniProt Q96RG2)
Assay: PAS Kinase FRET Assay
Format: biochemical
Conditions: TR-FRET assay; read-out: IC50 Kinase Domain
Source text: The aim of the FRET assay is to determine the inhibition potential of test compounds on targeted kinase. This assay platform provides a homogenous screening method for measuring kinase activity by quantitating the amount of phospho-substrate in solution following a kinase reaction.
In the presence of kinase and ATP, the Ulight-peptide is phosphorylated and captured by an anti-phospho-substrate antibody, which brings the Eu chelate donor and Ulight acceptor dyes into close proximity. Upon excitation at 340 nm, the Eu chelate transfers its energy to the Ulight dye, resulting in a fluorescent light emission at 665 nm
Titration of kinase at 1 mM ATP was achieved via the following protocol. After making serial three-fold dilutions of PASK (Invitrogen) in reaction buffer across the plate; 5 μl of kinase dilution and 5 μl substrate/ATP mix were added to the wells of the white Optiplate-384 (PerkinElmer). The contents of the plate were and incubated at RT for 1 h. The reaction was stopped by adding 5 μl of stop solution to each test well followed by mixing and incubation at RT for 10 minutes. 5 μl of detection mix (detection antibody diluted in detection buffer) was added; the contents of the plate were mixed and then incubated in the dark for 1 hour at RT. The signal was recorded at TR-FRET mode (665 nm/615 nm). The results were graphed to calculate the EC50.
Titration of ATP at the EC50 concentration of kinase to determine ATP Km, app. was performed using the following method. After making serial dilutions of ATP (Invitrogen), 5 μl of ATP dilution and 5 μl substrate/kinase mix were added to the wells of the white Optiplate-384 (PerkinElmer). The contents of the plate were and incubated at RT for 1 h. The reaction was stopped by adding 5 μl of stop solution to each test well followed by mixing and incubation at RT for 10 minutes. 5 μl of detection mix (detection antibody diluted in detection buffer) was added; the contents of the plate were mixed and then incubated in the dark for 1 hour at RT. The signal was recorded at TR-FRET mode (665 nm/615 nm). The results were graphed to calculate the EC50 as the ATP Km, app.
Compound screening was done via the following method. 10 mM stock solution of test compound in DMSO was prepared by dissolving test compound in DMSO at RT for 1 hour, and then sonicating at 100% output for 8 minutes. If compound is not soluble under this condition, it was diluted to 3 mM. Kinase reaction buffer was prepared containing 10 mM MgCl2, 50 mM HEPES, 1 mM EGTA, 0.01% TWEEN-20, 2 mM DTT. Serial dilutions of the test compounds were prepared at 4×final assay concentrations using Freedom EVO200® dispensing system as follows: 12×10^−5 M, 4×10^−5 M, 1.33×10^−5 M, 4.44×10^−6 M, 1.48×10^−6 M, 4.92×10^−7 M, 1.65×10^−7 M, […], 1.82×10^−8M, 6.09×10^−9, 2.03×10^−9 M. Test compounds (2.5 μl at 4× the final assay concentration) was added to wells using Freedom EVO200® dispensing system. As a positive control, 2.5 μl of positive compound was added to assay wells, and 2.5 μl of DMSO to assay wells as vehicle control. Kinase solution was prepared in reaction buffer at 2×final assay concentration. Kinase solution (5 μl) was added to each well of the assay plate. The substrate and ATP solution was prepared in kinase reaction buffer at 4×final assay concentration. The kinase reaction was started by adding 2.5 μl of substrate+ATP mix solution to each well of the assay plate. The plate is mixed on a plate shaker; then covered and allowed to react for 2 hours in the dark at 25° C. without shaking. The reaction was stopped by adding 5 μl of stop solution to each test well followed by mixing and incubation at RT for 10 minutes in the dark. 5 μl of detection mix (detection antibody diluted in detection buffer) was added; the contents of the plate were mixed and then incubated in the dark for 1 hour at RT. The signal was recorded at TR-FRET mode (665 nm/615 nm).

Chain of PASK (Q96RG2 999-1251): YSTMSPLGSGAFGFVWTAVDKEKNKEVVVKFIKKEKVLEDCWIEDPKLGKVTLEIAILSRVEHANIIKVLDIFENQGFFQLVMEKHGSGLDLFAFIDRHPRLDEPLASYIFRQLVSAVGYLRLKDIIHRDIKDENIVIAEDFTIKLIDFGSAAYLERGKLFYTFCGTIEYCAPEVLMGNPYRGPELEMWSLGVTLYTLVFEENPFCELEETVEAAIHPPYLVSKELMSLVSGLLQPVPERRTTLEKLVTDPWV

Row | IC50 [µM] | SMILES
1 | ≤ 10 | Nc1nn2c(=O)cc(-c3ccc(C(F)(F)F)cc3)[nH]c2c1-c1ccccn1 [Example 172, 2-amino-3-(pyridin-2-yl)-5-(4-(trifluoromethyl)phenyl)pyrazolo[1,5-a]pyrimidin-7(411)-one]
2 | ≤ 10 | O=c1cc(-c2ccc(C(F)(F)F)cc2)[nH]c2c(-c3ccccn3)cnn12 [Example 173, 3-(Pyridin-2-yl)-5-(4-(trifluoromethyl)phenyl)pyrazolo[1,5-a]pyrimidin-7(4H)-one]
3 | ≤ 10 | Nc1nn2c(=O)cc(-c3cccc(F)c3)[nH]c2c1-c1ccccn1 [Example 174, 2-Amino-5-(3-fluorophenyl)-3-(pyridin-2-yl)pyrazolo[1,5-a]pyrimidin-7(4H)-one]
4 | ≤ 10 | O=c1cc(-c2cccc(F)c2)[nH]c2c(-c3ccccn3)cnn12 [Example 175, 5-(3-Fluorophenyl)-3-(pyridin-2-yl)pyrazolo[1,5-a]pyrimidin-7(4H)-one]
5 | ≤ 10 | Nc1nn2c(=O)cc(-c3ccc(F)cc3F)[nH]c2c1-c1ccccn1 [Example 176, 2-Amino-5-(2,4-difluorophenyl)-3-(pyridin-2-yl)pyrazolo[1,5-a]pyrimidin-7(4H)-one]
6 | ≤ 10 | O=c1cc(-c2ccc(F)cc2F)[nH]c2c(-c3ccccn3)cnn12 [Example 177, 5-(2,4-Difluorophenyl)-3-(pyridin-2-yl)pyrazolo[1,5-a]pyrimidin-7(4H)-one]
7 | ≤ 10 | CCCNC(=O)c1c(N)nn2c(=O)cc(-c3ccc4c(c3)OCO4)[nH]c12 [Example 178, 2-Amino-5-(benzo[d][1,3]dioxol-5-yl)-7-oxo-N-propyl-4,7-dihydropyrazolo[1,5-a]pyrimidine-3-carboxamide]
8 | ≤ 10 | CCC(=O)Nc1nn2c(=O)cc(-c3ccc4c(c3)OCO4)[nH]c2c1-c1ccccn1 [Example 180, N-(5-(Benzo[d][1,3]dioxol-5-yl)-7-oxo-3-(pyridin-2-yl)-4,7-dihydropyrazolo[1,5-a]pyrimidin-2-yl)propionamide]
9 | ≤ 10 | CC(C)C(=O)Nc1nn2c(=O)cc(-c3ccc4c(c3)OCO4)[nH]c2c1-c1ccccn1 [Example 181, N-(5-(Benzo[d][1,3]dioxol-5-yl)-7-oxo-3-(pyridin-2-yl)-4,7-dihydropyrazolo[1,5-a]pyrimidin-2-yl)isobutyramide]
10 | ≤ 10 | CC(=O)Nc1nn2c(=O)cc(-c3ccc4[nH]ncc4c3)[nH]c2c1-c1ccccn1 [Example 182, N-(5-(1H-Indazol-5-yl)-7-oxo-3-(pyridin-2-yl)-4,7-dihydropyrazolo[1,5-a]pyrimidin-2-yl)acetamide]
11 | ≤ 10 | CCc1nn2c(=O)cc(-c3ccc4[nH]ncc4c3)[nH]c2c1-c1ccccn1 [Example 183, 2-Ethyl-5-(1H-indazol-5-yl)-3-(pyridin-2-yl)pyrazolo[1,5-a]pyrimidin-7(4H)-one]
12 | ≤ 10 | Cn1ncc2cc(-c3cc(=O)n4nc(N)c(-c5ccccn5)c4[nH]3)ccc21 [Example 184, 2-Amino-5-(1-methyl-1H-indazol-5-yl)-3-(pyridin-2-yl)pyrazolo[1,5-a]pyrimidin-7(4H)-one]
13 | ≤ 10 | Cc1nn2c(=O)cc(-c3ccc4[nH]nnc4c3)[nH]c2c1Cc1ccccc1 [Example 185, 5-(1H-Benzo[d][1,2,3]triazol-5-yl)-3-benzyl-2-methylpyrazolo[1,5-a]pyrimidin-7(4H)-one]
14 | ≤ 10 | Cn1ncc2cc(-c3cc(=O)n4ncc(-c5ccccn5)c4[nH]3)ccc21 [Example 186, 5-(1-Methyl-1H-indazol-5-yl)-3-(pyridin-2-yl)pyrazolo[1,5-a]pyrimidin-7(4H)-one]
15 | ≤ 10 | O=c1cc(-c2ccc3[nH]ncc3c2)[nH]c2c(-c3ccccn3)c(O)nn12 [Example 187, 2-Hydroxy-5-(1H-indazol-5-yl)-3-(pyridin-2-yl)pyrazolo[1,5-a]pyrimidin-7(4H)-one]
16 | ≤ 10 | Cc1n[nH]c2ccc(-c3cc(=O)n4nc(N)c(-c5ccccn5)c4[nH]3)cc12 [Example 188, 2-Amino-5-(3-methyl-1H-indazol-5-yl)-3-(pyridin-2-yl)pyrazolo[1,5-a]pyrimidin-7(4H)-one]
17 | ≤ 10 | Cc1n[nH]c2ccc(-c3cc(=O)n4ncc(-c5ccccn5)c4[nH]3)cc12 [Example 189, 5-(3-Methyl-1H-indazol-5-yl)-3-(pyridin-2-yl)pyrazolo[1,5-a]pyrimidin-7(4H)-one]
18 | ≤ 10 | CCc1nn2c(=O)cc(-c3ccc(Cl)cc3)[nH]c2c1-c1ccccn1 [Example 190, 5-(4-Chlorophenyl)-2-ethyl-3-(pyridin-2-yl)pyrazolo[1,5-a]pyrimidin-7(4H)-one]
19 | ≤ 10 | O=c1cc(-c2ccc3[nH]nnc3c2)[nH]c2c(-c3ccccn3)cnn12 [Example 192, 5-(1H-Benzo[d][1,2,3]triazol-5-yl)-3-(pyridin-2-yl)pyrazolo[1,5-a]pyrimidin-7(4H)-one]
20 | ≤ 10 | Cn1nnc2cc(-c3cc(=O)n4nc(N)c(-c5ccccn5)c4[nH]3)ccc21 [Example 194, 2-Amino-5-(1-methyl-1H-benzo[d][1,2,3]triazol-5-yl)-3-(pyridin-2-yl)pyrazolo[1,5-a]pyrimidin-7(4H)-one]
21 | ≤ 10 | Cn1nnc2cc(-c3cc(=O)n4ncc(-c5ccccn5)c4[nH]3)ccc21 [Example 195, 5-(1-Methyl-1H-benzo[d][1,2,3]triazol-5-yl)-3-(pyridin-2-yl)pyrazolo[1,5-a]pyrimidin-7(4H)-one]
22 | ≤ 10 | CCc1nn2c(=O)cc(-c3ccc4c(cnn4C)c3)[nH]c2c1-c1ccccn1 [Example 196, 2-Ethyl-5-(1-methyl-1H-indazol-5-yl)-3-(pyridin-2-yl)pyrazolo[1,5-a]pyrimidin-7(4H)-one]
23 | ≤ 10 | Cc1nn2c(=O)cc(-c3ccc4[nH]nnc4c3)[nH]c2c1-c1ccccn1 [Example 200, 5-(1H-Benzo[d][1,2,3]triazol-5-yl)-2-methyl-3-(pyridin-2-yl)pyrazolo[1,5-a]pyrimidin-7(4H)-one]
24 | ≤ 10 | CC(=O)Nc1nn2c(=O)cc(-c3ccc4[nH]nnc4c3)[nH]c2c1-c1ccccn1 [Example 202, N-(5-(1H-Benzo[d][1,2,3]triazol-5-yl)-7-oxo-3-(pyridin-2-yl)-4,7-dihydropyrazolo[1,5-a]pyrimidin-2-yl)acetamide]
25 | ≤ 10 | CCC(=O)Nc1nn2c(=O)cc(-c3ccc4nn[nH]c4c3)[nH]c2c1-c1ccccn1 [Example 203, N-(5-(1H-Benzo[d][1,2,3]triazol-6-yl)-7-oxo-3-(pyridin-2-yl)-4,7-dihydropyrazolo[1,5-a]pyrimidin-2-yl)propionamide]
26 | ≤ 10 | CCn1ncc2cc(-c3cc(=O)n4nc(NC(C)=O)c(-c5ccccn5)c4[nH]3)ccc21 [Example 204, N-(5-(1-Ethyl-1H-indazol-5-yl)-7-oxo-3-(pyridin-2-yl)-4,7-dihydropyrazolo[1,5-a]pyrimidin-2-yl)acetamide]
27 | ≤ 10 | CCc1nn2c(=O)cc(-c3ccc4[nH]nnc4c3)[nH]c2c1-c1ccccc1 [Example 206, 5-(1H-Benzo[d][1,2,3]triazol-5-yl)-2-ethyl-3-phenylpyrazolo[1,5-a]pyrimidin-7(4H)-one]
28 | ≤ 10 | O=c1cc(-c2ccc3[nH]nnc3c2)[nH]c2c(Cc3ccccc3)cnn12 [Example 207, 5-(1H-Benzo[d][1,2,3]triazol-5-yl)-3-benzylpyrazolo[1,5-a]pyrimidin-7(4H)-one]
29 | ≤ 10 | Nc1nn2c(=O)cc(-c3ccc4[nH]nnc4c3)[nH]c2c1Cc1ccccc1 [Example 208, 2-Amino-5-(1H-benzo[d][1,2,3]triazol-5-yl)-3-benzylpyrazolo[1,5-a]pyrimidin-7(4H)-one]
